# Test results: US20110294874A1, “DIAGNOSIS AND THERAPY OF ORGAN DYSFUNCTION USING SPHINGANINE-1-PHOSPHATE” (The Trustees of Columbia University in the City of New York, priority 2008, published 2011)
# Several values for one entry are separate records, joined by “and”; a condition that tells them apart may be missing. Equal entries are not always repeated.
# Experiments:
# [1] = system: C57BL/6 mice subjected to liver IR; experiment: Pro-inflammatory mRNA (RT-PCR) and plasma TNF-α/IL-6 after liver IR; format: in vivo, mouse
# Experimental: (§1) Mice were anesthetized with intraperitoneal pentobarbital (50 mg/kg or to effect). Mice were placed under a heating lamp and on a 37° C. heating pad. After a midline laparotomy and intraperitoneal application of 20 U heparin, left lateral and median lobes of the liver were subjected to ischemia with a microaneurysm clip occluding the hepatic triad above the bifurcation. This method of partial hepatic ischemia results in a segmental (˜70%) hepatic ischemia but spares the right lobe of the liver and prevents mesenteric venous congestion by allowing portal decompression throughout the right and caudate lobes of the liver. The liver was then repositioned in the peritoneal cavity in its original location for 60 minutes. The liver was kept moist with gauze soaked in 0.9% normal saline. The body temperature was monitored by an infrared temperature sensor (Linear Laboratories, Fremont, Calif.) every 10 min. and maintained at 37° C. using a heating lamp and a heating pad. After 60 minutes, the liver was reperfused and the wound closed. Sham-operated mice were subjected to laparotomy and identical liver manipulations without vascular occlusion. Two, 4 and 24 hr after reperfusion, plasma was collected for the measurement of alanine aminotransferase (ALT), a common indicator of liver damage, as well as creatinine (Cr) a common indicator of kidney damage. The liver tissue subjected to IR was collected to measure percent liver necrosis (2, 4 and 24 hr after IR), neutrophil infiltration (with immunohistochemistry, 4 and 24 hr after IR), apoptosis (with terminal deoxynucleotidyl transferase-mediated dUTP nick end labeling staining, caspase 3 immunoblotting and DNA laddering, 24 hr after IR), and inflammation by RT-PCR for pro-inflammatory mRNAs (4 hr after IR).
# The extent of the suppression was different between kidney and liver. […]
# [2] = system: C57BL/6 mice subjected to liver IR; experiment: Survival of mice after liver IR; format: in vivo, mouse; conditions: 24 hours post liver IR
# Description: Without Sg1P administration, 20% of mice subjected to liver IR stayed alive after 1 week. With Sg1P treatment, 50% of mice subjected to liver IR that received Sg1P remained alive after the same time period.
# [3] = system: SK1 KO mice subjected to liver IR; experiment: Liver IR in SK1 KO mice: plasma ALT and creatinine; format: in vivo, mouse; conditions: SK1KO, hepatic IR 24 h
# Experimental: (§2) The effects of administering Sg1P (0.1 mg/kg i.v. and 0.2 mg/kg s.c.) on liver and renal injury were also determined in the KO mice and are also shown in Tables 9 and 10 below.
# [4] = system: SK2 KO mice subjected to liver IR; experiment: Liver IR in SK2 KO mice: plasma ALT and creatinine; format: in vivo, mouse; conditions: SK2KO, hepatic IR 24 h
# Experimental: as §2
# [5] = system: Nephrectomized C57BL/6 mice with liver IR; experiment: Nephrectomized C57BL/6 mice with 45 min. liver IR: serum ALT; format: in vivo, mouse
# Experimental: Normally, 1 hour of liver IR results in serum ALT increasing to 15076±1174 U/L (N=6) 24 hours later. In nephrectomized mice, however, the rise in ALT was more severe, and it rose to 20237±2628 U/L (N=3) after only 45 minutes of liver IR. The nephrectomized mice were also less responsive to Sg1P treatment.
# ERK/MAPK, Akt, HSP27 = experiment: Immunoblotting/RT-PCR of liver and kidney of mice injected with Sg1P; format: in vivo, mouse; conditions: i.v. injection
# Experimental: Mice were injected with sphinganine 1-phophate intravenously and their kidney and liver tissues were extracted at 15 minutes after injection (for immunoblotting of phosphorylated proteins) or at 5 hours after injection (for RT-PCR). […] HSP27 is a known F-actin stabilizing and anti-apoptotic protein.
# [6] = system: human epithelial HK-2 cell line; experiment: Kinase phosphorylation and HSP27 expression in HK-2 cells; format: cell-based; conditions: HK-2 (data not shown)
# Description: As shown above, Sg1P protects human endothelial cells, and does so through the same mechanism as shown in mouse tissue.
# [7] = system: Sham-operated C57BL/6 mice; experiment: Sham-operated C57BL/6 mice: plasma ALT and creatinine; format: in vivo, mouse
# Experimental: as §1, with “The liver tissue subjected to IR was collected to measure percent liver necrosis (2, 4 and 24 hr after IR), neutrophil infiltration (with immunohistochemistry, 4 and 24 hr after IR), apoptosis (with terminal deoxynucleotidyl transferase-mediated dUTP nick end labeling staining, caspase 3 immunoblotting and DNA laddering, 24 hr after IR), and inflammation by RT-PCR for pro-inflammatory mRNAs (4 hr after IR).” left out
# [8] = 0.1 mg/kg i.v. and 0.2 mg/kg s.c.
# [9] = nephrectomized, 45 min. liver IR
smiles,measurement,setting,value
"CCCCCCCCCCCCCCC[C@@H](O)[C@@H](N)COP(=O)(O)O [Sg1P, sphinganine-1-phosphate]",Liver IR-induced ICAM-1 and MIP-2 mRNA upregulation in kidney,[1]; kidney,suppressed
same,"Liver IR-induced upregulation of ICAM-1, KC, MCP-1 and MIP-2 mRNA in liver",[1]; liver,suppressed
same,Liver IR-induced increase in plasma TNF-α and IL-6,[1]; plasma,almost eliminated
same,Survival rate,[2],~90%
same,Creatinine (mean),[3],0.709 mg/dL
same,ALT (mean),[3]; [8],9602.01 U/L
same,Creatinine (mean),[4],0.679 mg/dL
same,ALT (mean),[4]; [8],7575.28 U/L
same,Reduction in the severity of liver injury (change in ALT levels),[5]; nephrectomized mice,16%
same,"ALT (24 hrs. post-IR), individual mice",[5]; [9],15993.65 U/L and 19276.19 U/L and 15819.05 U/L
same,"ALT (24 hrs. post-IR), mean",[5]; [9],17029±1124 U/L and 17029.63 U/L
same,"Phosphorylation of ERK/MAPK, Akt and HSP27 in liver and kidney","ERK/MAPK, Akt, HSP27; tissues 15 minutes after injection",resulted in phosphorylation
same,HSP27 mRNA expression in liver and kidney,"ERK/MAPK, Akt, HSP27; tissues 5 hours after injection",induced
same,"Phosphorylation of ERK/MAPK, Akt, HSP27 and HSP27 expression",[6],"failed to phosphorylate ERK/MAPK, Akt and HSP27 and also failed to induce HSP27 expression"
same,Mean ALT,[7],80 U/L
same,Mean Creatinine,[7],0.46 mg/dL
